# In patent publication US20090275583A1, “ANTIVIRAL COMPOUNDS AND USE THEREOF” (Myriad Genetics, Incorporated, priority 2006, published 2009):
# Like-named read-outs stand apart in the source and are kept apart here.
# Columns and labels:
# [1] = test system: HIV-1 laboratory strain, NL4-3; assay: MT-4 cytoprotection assay; format: cell-based
# In short: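 MT-4 cells mock- or batch-infected with NL4-3 (MOI 0.0005) for 2 h, washed, then cultured 4 days with increasing compound concentrations. Viability read by WST-1 tetrazolium reduction: cytoprotection in infected cells, toxicity in mock-infected cells.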
# HIV-1NL4-3 = assay: P4-MAGI assay; format: cell-based
# In short: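 HeLa-derived CD4+ P4 cells carrying an LTR-driven lacZ were infected with HIV-1NL4-3 at MOI 1 with DEAE-Dextran, then compound added in increasing concentrations right after virus; infection reported as Tat-induced β-galactosidase. TC50 measured by WST-1 in mock-infected cells.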
# [2] = Human immunodeficiency virus 1, NL43, MT4, 96 h, MT-4 cells, four days incubation, WST-1 readout, read-out: MT4 EC50
# [3] = Human immunodeficiency virus 1, NL43, less than about 100 nm, read-out: MT-4 assay EC50 (concentration of compound that reduces the virus induced cytopathic effect by 50%)
# [4] = Human immunodeficiency virus 1, 24 h, P4 cells, 24 hour incubation, β-galactosidase expression, read-out: P4-MAGI IC50
# [5] = Human immunodeficiency virus 1, text statement, less than about 100 nm, read-out: P4-MAGI assay IC50
Structure (SMILES),"EC50 [1, 2] [nM]","EC50 [1, 3] [nM]",IC50 (HIV-1NL4-3; [4]) [nM],IC50 (HIV-1NL4-3; [5]) [nM]
C=C(C)[C@@H]1CC[C@]2(C(=O)NCc3cc(C(=O)NCCc4cccc(C(=O)OC)c4)ccc3F)CC[C@]3(C)C(CCC4[C@@]5(C)CC[C@H](O)C(C)(C)C5CC[C@]43C)C12 (some centres unmarked) [Example 98],13,< 100,57.7,< 100
C=C(C)[C@@H]1CC[C@]2(C(=O)NCc3cc(C(=O)NCc4ccc(C(=O)O)cc4)ccc3F)CC[C@]3(C)C(CCC4[C@@]5(C)CC[C@H](O)C(C)(C)C5CC[C@]43C)C12 (some centres unmarked) [Example 99],2.8,< 100,20.1,< 100
C=C(C)[C@@H]1CC[C@]2(C(=O)NCc3cc(C(=O)NCc4ccc(C(=O)OC)cc4)ccc3F)CC[C@]3(C)C(CCC4[C@@]5(C)CC[C@H](O)C(C)(C)C5CC[C@]43C)C12 (some centres unmarked) [Example 100],1.3,< 100,21.5,< 100
C=C(C)[C@@H]1CC[C@]2(C(=O)NCc3cc(C(=O)NCc4cccc(C(=O)O)c4)ccc3F)CC[C@]3(C)C(CCC4[C@@]5(C)CC[C@H](O)C(C)(C)C5CC[C@]43C)C12 (some centres unmarked) [Example 101],3.2,< 100,28.3,< 100
C=C(C)[C@@H]1CC[C@]2(C(=O)NCc3cc(C(=O)NCc4cccc(C(=O)OC)c4)ccc3F)CC[C@]3(C)C(CCC4[C@@]5(C)CC[C@H](O)C(C)(C)C5CC[C@]43C)C12 (some centres unmarked) [Example 102],0.6,< 100,22,< 100
C=C(C)[C@@H]1CC[C@]2(C(=O)NCc3ccc(F)c(C(=O)NCCc4ccc(C(=O)O)cc4)c3)CC[C@]3(C)C(CCC4[C@@]5(C)CC[C@H](O)C(C)(C)C5CC[C@]43C)C12 (some centres unmarked) [Example 103],7.3,< 100,69.3,< 100
C=C(C)[C@@H]1CC[C@]2(C(=O)NCc3ccc(F)c(C(=O)NCCc4cccc(C(=O)O)c4)c3)CC[C@]3(C)C(CCC4[C@@]5(C)CC[C@H](O)C(C)(C)C5CC[C@]43C)C12 (some centres unmarked) [Example 105],8.5,< 100,62.1,< 100
C=C(C)[C@@H]1CC[C@]2(C(=O)NCc3ccc(F)c(C(=O)NCc4ccc(C(=O)O)cc4)c3)CC[C@]3(C)C(CCC4[C@@]5(C)CC[C@H](O)C(C)(C)C5CC[C@]43C)C12 (some centres unmarked) [Example 107],130,–,103,–
C=C(C)[C@@H]1CC[C@]2(C(=O)NCc3ccc(F)c(C(=O)NCc4ccc(C(=O)OC)cc4)c3)CC[C@]3(C)C(CCC4[C@@]5(C)CC[C@H](O)C(C)(C)C5CC[C@]43C)C12 (some centres unmarked) [Example 108],100,< 100,109,–
C=C(C)[C@@H]1CC[C@]2(C(=O)NCc3ccc(F)c(C(=O)NCc4cccc(C(=O)O)c4)c3)CC[C@]3(C)C(CCC4[C@@]5(C)CC[C@H](O)C(C)(C)C5CC[C@]43C)C12 (some centres unmarked) [Example 109],50,< 100,149,–
C=C(C)[C@@H]1CC[C@]2(C(=O)NCCc3ccc(O)cc3)CC[C@]3(C)C(CCC4[C@@]5(C)CC[C@H](O)C(C)(C)C5CC[C@]43C)C12 (some centres unmarked) [Example 111],3800,–,72.2,< 100
C=C(C)[C@@H]1CC[C@]2(C(=O)NCc3ccc(OC)c(C(=O)NCCCCC(=O)O)c3)CC[C@]3(C)C(CCC4[C@@]5(C)CC[C@H](O)C(C)(C)C5CC[C@]43C)C12 (some centres unmarked) [Example 114],211,–,48.4,< 100
C=C(C)[C@@H]1CC[C@]2(C(=O)NCc3cccc(C(=O)NCc4ccc(OCCCC(=O)O)c(C(=O)O)c4)c3)CC[C@]3(C)C(CCC4[C@@]5(C)CC[C@H](O)C(C)(C)C5CC[C@]43C)C12 (some centres unmarked) [Example 117],384,–,76,< 100
C=C(C)[C@@H]1CC[C@]2(C(=O)NCc3cccc(C(=O)NCc4ccc(OCCCn5ccnc5)c(C(=O)OC)c4)c3)CC[C@]3(C)C(CCC4[C@@]5(C)CC[C@H](O)C(C)(C)C5CC[C@]43C)C12 (some centres unmarked) [Example 121],17,–,21.3,–
C=C(C)[C@@H]1CC[C@]2(C(=O)NCc3cccc(C(=O)NCc4ccc(OCCCN5CCOCC5)c(C(=O)OC)c4)c3)CC[C@]3(C)C(CCC4[C@@]5(C)CC[C@H](O)C(C)(C)C5CC[C@]43C)C12 (some centres unmarked) [Example 123],13,< 100,18.9,< 100
C=C(C)[C@@H]1CC[C@]2(C(=O)NCc3cccc(C(=O)NCc4ccc(OCCCN5CCOCC5)c(C(=O)O)c4)c3)CC[C@]3(C)C(CCC4[C@@]5(C)CC[C@H](O)C(C)(C)C5CC[C@]43C)C12 (some centres unmarked) [Example 124],8,< 100,27.9,< 100
C=C(C)[C@@H]1CC[C@]2(C(=O)NCc3cccc(C(=O)NCc4ccc(OCCCO)c(C(=O)O)c4)c3)CC[C@]3(C)C(CCC4[C@@]5(C)CC[C@H](O)C(C)(C)C5CC[C@]43C)C12 (some centres unmarked) [Example 125],56,< 100,42,< 100

Structure (SMILES),"EC50 [1, 2] [nM]","EC50 [1, 3] [nM]",IC50 (HIV-1NL4-3; [4]) [nM],IC50 (HIV-1NL4-3; [5]) [nM]
C=C(C)[C@@H]1CC[C@]2(C(=O)NCCc3cccc(-c4nc5ccc(C(=O)O)cc5[nH]4)c3)CC[C@]3(C)C(CCC4[C@@]5(C)CC[C@H](O)C(C)(C)C5CC[C@]43C)C12 (some centres unmarked) [Example 130],230,–,39,–
C=C(C)[C@@H]1CC[C@]2(C(=O)NCCc3cccc(C(=O)NCc4ccc(C(=O)N[C@@H](CCC(=O)O)C(=O)O)cc4)c3)CC[C@]3(C)C(CCC4[C@@]5(C)CC[C@H](O)C(C)(C)C5CC[C@]43C)C12 (some centres unmarked) [Example 133],84,< 100,34,< 100
C=C(C)[C@@H]1CC[C@]2(C(=O)NCCc3cccc(C(=O)NCc4ccc(C(=O)N(C)CCN(C)C)cc4)c3)CC[C@]3(C)C(CCC4[C@@]5(C)CC[C@H](O)C(C)(C)C5CC[C@]43C)C12 (some centres unmarked) [Example 134],240,–,68.7,< 100
C=C(C)[C@@H]1CC[C@]2(C(=O)NCCc3cccc(C(=O)NCc4ccc(C(=O)NCCN(C)C)cc4)c3)CC[C@]3(C)C(CCC4[C@@]5(C)CC[C@H](O)C(C)(C)C5CC[C@]43C)C12 (some centres unmarked) [Example 135],533,–,70,< 100
C=C(C)[C@@H]1CC[C@]2(C(=O)NCCc3cccc(C(=O)NCc4ccc(C(=O)NCCN5CCOCC5)cc4)c3)CC[C@]3(C)C(CCC4[C@@]5(C)CC[C@H](O)C(C)(C)C5CC[C@]43C)C12 (some centres unmarked) [Example 136],14.1,< 100,11.6,< 100
C=C(C)[C@@H]1CC[C@]2(C(=O)NCCc3cccc(C(=O)NCc4ccc(C(=O)N(C)CCc5ccccn5)cc4)c3)CC[C@]3(C)C(CCC4[C@@]5(C)CC[C@H](O)C(C)(C)C5CC[C@]43C)C12 (some centres unmarked) [Example 137],10.5,< 100,10.8,< 100
C=C(C)[C@@H]1CC[C@]2(C(=O)NCc3cccc(C(=O)NCCCCC(=O)O)c3)CC[C@]3(C)C(CCC4[C@@]5(C)CCC(=O)C(C)(C)C5CC[C@]43C)C12 (some centres unmarked) [Example 141],1500,–,157,–
C=C(C)[C@@H]1CC[C@]2(CNCc3cccc(C(=O)NCc4cccc(C(=O)O)c4)c3)CC[C@@]3(C)C(CCC4[C@@]5(C)CC[C@H](O)C(C)(C)C5CC[C@]43C)C12 (some centres unmarked) [Example 143],1300,–,120,–
C=C(C)[C@@H]1CC[C@]2(C(=O)NCCc3cccc(C(=O)NC(Cc4ccc(OCC(=O)O)cc4)C(=O)O)c3)CC[C@]3(C)C(CCC4[C@@]5(C)CC[C@H](O)C(C)(C)C5CC[C@]43C)C12 (some centres unmarked) [Example 146],3300,–,197,–
C=C(C)[C@@H]1CC[C@]2(C(=O)NCCc3cccc(C(=O)NCCc4ccc(O)cc4)c3)CC[C@]3(C)C(CCC4[C@@]5(C)CC[C@H](O)C(C)(C)C5CC[C@]43C)C12 (some centres unmarked) [Example 147],30,–,26.6,–
C=C(C)[C@@H]1CC[C@]2(C(=O)NCCc3cccc(C(=O)NCc4ccc(S(=O)(=O)NCCN5CCOCC5)cc4)c3)CC[C@]3(C)C(CCC4[C@@]5(C)CC[C@H](O)C(C)(C)C5CC[C@]43C)[C@@H]12 (some centres unmarked) [Example 148],53,–,6,–
C=C(C)[C@@H]1CC[C@]2(C(=O)NCCc3cccc(C(=O)NCc4ccc(N)cn4)c3)CC[C@]3(C)C(CCC4[C@@]5(C)CC[C@H](O)C(C)(C)C5CC[C@]43C)[C@@H]12 (some centres unmarked) [Example 149],88,–,23,–
C=C(C)[C@@H]1CC[C@]2(C(=O)NCCc3cccc(C(=O)NCc4ccccn4)c3)CC[C@]3(C)C(CCC4[C@@]5(C)CC[C@H](O)C(C)(C)C5CC[C@]43C)C12 (some centres unmarked) [Example 150],122,–,24,–
C=C(C)[C@@H]1CC[C@]2(C(=O)NCCc3cccc(C(=O)NCCc4c[nH]c5ccccc45)c3)CC[C@]3(C)C(CCC4[C@@]5(C)CC[C@H](O)C(C)(C)C5CC[C@]43C)C12 (some centres unmarked) [Example 151],325,–,85,–
C=C(C)[C@@H]1CC[C@]2(C(=O)NCCc3cccc(C(=O)NCc4nc(C(=O)OC)co4)c3)CC[C@]3(C)C(CCC4[C@@]5(C)CC[C@H](O)C(C)(C)C5CC[C@]43C)C12 (some centres unmarked) [Example 152],14,–,36,–
C=C(C)[C@@H]1CC[C@]2(C(=O)NCCc3cccc(C(=O)NCc4nc(C(=O)O)co4)c3)CC[C@]3(C)C(CCC4[C@@]5(C)CC[C@H](O)C(C)(C)C5CC[C@]43C)C12 (some centres unmarked) [Example 153],14,–,44.7,–
C=C(C)[C@@H]1CC[C@]2(C(=O)NCCc3cccc(C(=O)NCc4cccc(C(=O)OC)n4)c3)CC[C@]3(C)C(CCC4[C@@]5(C)CC[C@H](O)C(C)(C)C5CC[C@]43C)C12 (some centres unmarked) [Example 154],8,–,34,–
